Test results reported in paper PMC7845544 (Frontiers in Pharmacology, 2021).
Where “and” joins values, the source holds several entries; their conditions need not be identical. Equal entries are not always repeated. Entries after “also recorded” stand apart in the source; their conditions may differ.

Key:
[1] = system: rat Leydig cells; assay: Testosterone production from rat primary Leydig cells; format: cell-based; details: 3 h incubation
Protocol: Testes were obtained from 21 day old male SD rats, decapsulated into DMEM/F12 media, placed into a spinner flask containing pre-warmed 25 ml digestion media (DMEM/F12 no phenol red + 1 mg/ml Collagenase), and stirred at 37°C in 5% CO2 incubator for 10–15 min ([Hedger et al., 1990]). The digestion supernatant was passed through a 70 um cell strainer into a 50 ml tube, and the digestion was stopped with 0.1% BSA + 0.1 mg/ml trypsin soybean inhibitor) in 50 ml. The digested cells were centrifuged at 800 rpm for 5 min, the supernatant discarded and the cell pellet resuspend in 1 ml assay buffer (DMEM/F12 no phenol red +0.1% BSA) per paired testes. The cells were counted and diluted to 5 × 10^6 cells/ml, and 50 ul of this cell suspension was added to each well of a 96-well plate. Testes obtained from five 21 day old rats generally yielded 1 × 10^8 cells. […] At the end of incubation, media was collected and testosterone measured by ELISA (EIA‐1559, DRG).

[2] = system: human granulosa cells; assay: Estradiol production from pooled human granulosa-lutein cells (Boston IVF); format: cell-based; details: for EC50: pooled granulosa-lutein cells from two patients (Figure 4A), read-out: EC50, 17β-estradiol production; for maximal 17β-estradiol response: three patients (Figure 4B)
Protocol: Human granulosa cells were prepared from the spent follicular fluid of women undergoing IVF treatment at Boston IVF Center (Waltham, MA, United States) and at Family Fertility Center (Baylor College of Medicine, Houston, TX, United States) following methods previously established ([Breckwoldt et al., 1996]; [Amsterdam et al., 2003]). Institutional review board approval and informed consent from the patients were obtained before collecting the follicular fluid samples. In brief, red blood cells (RBCs) in the follicular aspirate were lyzed using RBC lysis buffer (Quality Biological Inc., Gaithersburg, MD, United States), and washed extensively with PBS and DMEM/F12 containing 5% FBS, fungizone, and the antibiotics penicillin (100 IU/ml) and streptomycin (100 μg/ml). Subsequently, cells from the aspirate were plated in T75 flasks, cultured for 7 days with fresh media being replaced every other day. At the end of the culture period, cells were released from the flask by trypsin and transferred to 96-well plates (5,000 cells/well, Greiner Bio-One). Following 48 h of culture, media in culture wells was replaced with serum free media containing 0.1% BSA and 10^−7 M androstenedione. Following 24 h of serum starvation, cells were stimulated with fresh media (0.1% BSA, 10^−7 M androstenedione) with FSH or compound for 48 h. Supernatant was collected and stored at −80C for determination of estradiol by ELISA.

[3] = Dog pharmacokinetics; format: in vivo; details: 10 mg/kg
[4] = system: immature SD rats; assay: Superovulation assay in immature rats; format: in vivo, rat; details: for minimal effective dose, cumulus oocyte complexes (COC): with low dose rec-hFSH (0.29 IU)
Protocol: Immature SD rats and B6C3F1 mice (both 18–21 day old females) were purchased from Charles-River laboratories (Wilmington, MA, United States and Shanghai, China). All animals were treated in accordance to Chempartner (Shanghai, China) or Embryotech (Haverhill, MA, United States) IACUC approved animal protocols. The animals were provided water and food ad libitum and housed under 12 h dark and 12 h light schedules.
Immature rats and mice were used to investigate the ability of the small molecules to induce follicular development and support ovulation as described elsewhere ([Steelman and Pohley, 1953]) with modifications ([Sriraman et al., 2014]). […] The isolated COC’s were treated with hyaluronidase and the total number of ovulated oocytes was determined microscopically.
Plasma concentrations of FSHR-AA were measured during superovulation assays, except for experiments where plasma was collected for estradiol measurements.

[5] = system: Sprague Dawley rats
Protocol: Toxicological evaluations were performed in both rat and dog as the second species according to the guidance from FDA. […] The animals were administered vehicle or 30, 100, 300 and 1,000 mg/kg by oral gavage for 14 days. […] Separate groups of animals (n = 6/sex/dose) were used for toxicokinetic (TK) analysis. On day 1 and day 14 of drug administration, serial blood samples were collected from 5 min to 24 h from the TK group animals for analytical measurement of the compound. Blood samples were placed on ice immediately after collection and were centrifuged at approximately 8,000 rpm for 6 min at 2–8°C and the resulting plasma were separated and stored in pre-labeled plastic tubes or vials. The amount of compound in the plasma samples were measure using an HPLC method. […] Evaluated parameters included; mortality, clinical signs, body weight, food consumption, urinalysis, hematology, clinical chemistry, gross post mortem examinations, organ weights and histopathological evaluations of selected tissues. At the end of 14-days of treatment, animals were sacrificed and blood collected for serum chemistry, coagulation and hematological analysis, organ weighed and histological analysis performed in select tissue from control and high dose group.

COc1cc2c(cc1-c1cnn(CCO)c1)-c1c(c(C(=O)N(C)C(C)(C)C)nn1-c1cc(Cl)cc(Cl)c1)CO2 [TOP5300]
testosterone production from cultured rat Leydig cells [1]: stimulated concentration-dependent increases in testosterone production | EC50 [2]: 474 nM | maximal 17β-estradiol response ([2]; second culture): 200 ng/mL | Dog PK AUC [3]: 8,719 ng*h/ml | Dog PK T1/2 [3]: 9 h and 9.4 h | Dog PK F% ([3]; oral bioavailability): 32% | number of COCs vs 1.16 IU rec-hFSH ([4]; 50 mg/kg, oral, with 0.29 IU rec-hFSH): not significantly different from 1.16 IU rec-hFSHH | serum estradiol-17β production ([4]; 5, 10 and 25 mg/kg, immature rat): followed the follicular stimulation response | follicular maturation with or without supplemental rec-hFSH (0.29 IU) ([4]; immature rat, oral): full agonist | single daily dose (QD) vs twice daily (BID) administration, follicular maturation ([4]; immature rat, oral gavage, with 0.29 IU FSH): stimulates similar follicular growth; also recorded: equally effective as twice daily administrations | minimal effective dose, cumulus oocyte complexes (COC) ([4]; immature rat, oral): 5 mg/kg | margin of safety between first significant efficacy (5 mg/kg) and NOAEL (300 mg/kg) ([5]; rat): 60 fold | accumulation after 14-days repeated dosing ([5]; rat, in vivo): not observed | NOAEL, female rat ([5]; rat, in vivo, po): 300 mg/kg | NOAEL, male rat ([5]; rat, in vivo, po): 1,000 mg/kg | Tmax, Day1 ([5]; rat, in vivo, po): 2 to 8 h | Tmax, Day14 ([5]; rat, in vivo, po): 2 to 8 h | mortality, rat ([5]; up to 1,000 mg/kg, 14 days): all animals survived the duration of the study

COc1cc(C(N)=O)cc(-c2cc3c(cc2OC)OCc2c(C(=O)N(C)C(C)(C)C)nn(-c4cc(Cl)cc(Cl)c4)c2-3)n1 [TOP5668]
testosterone production from cultured rat Leydig cells [1]: very little activity | fold more potent than TOP5300, 17β-estradiol production ([2]; pooled cells from two patients (Figure 4A)): 30 fold | EC50 [2]: 15 nM | fold greater maximal estradiol response than rec-hFSH ([2]; pooled human granulosa cells, second culture (Figure 4B)): approximately 7 fold | potency shift to the left of TOP5300 ([2]; second culture, pooled cells from three patients (Figure 4B)): ~100 fold | maximal 17β-estradiol response ([2]; second culture): 200 ng/mL | fold more potent than TOP5300, superovulation dose response ([4]; immature rat): approximately 2 fold | minimal effective dose, cumulus oocyte complexes (COC) ([4]; immature rat, oral): 2.5 mg/kg
